Test results from PubChem BioAssay (NCI).
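Where inhibition never reached the appropriate level, the endpoint shown equals the highest concentration tested. Otherwise, values were interpolated linearly from a five-concentration, 48-hour dose response in 96-well plates. At the GI50, growth is halved. TGI is the concentration that stops growth completely.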

Assays:
Assay in all cases: inhibition of tumour cell growth, NCI panel, 48 h
MCF7 breast = tested on: MCF7 breast
MDA-MB-435 = tested on: MDA-MB-435
NCI/ADR-RES ovarian = tested on: NCI/ADR-RES ovarian
HS 578T breast = tested on: HS 578T breast
MDA-N = tested on: MDA-N
LXFL 529 NSCLC = tested on: LXFL 529 NSCLC
RXF-631 renal = tested on: RXF-631 renal

Row | SMILES | GI50 (MCF7 breast) | TGI (MCF7 breast) | GI50 (MDA-MB-435) | TGI (MDA-MB-435) | GI50 (NCI/ADR-RES ovarian) | TGI (NCI/ADR-RES ovarian) | GI50 (HS 578T breast) | TGI (HS 578T breast) | TGI (MDA-N) | TGI (LXFL 529 NSCLC) | TGI (RXF-631 renal)
1 | COc1ccc(F)cc1-c1ccnc2[nH]c(C3=CCN(C4CCC(CC(=O)O)CC4)CC3)cc12 (stereo not given) | 0.0625 µM | 26.9 µM | 0.221 µM | 1.05 µM | 2.15 µM | > 100 µM | 0.177 µM | 0.965 µM |  |  | 
2 | COC(=O)[C@@H](C)C[C@H](Cc1ccccc1)NC(=O)c1csc([C@@H](C[C@H](C(C)C)N(C)C(=O)[C@@H](NC(=O)[C@H]2CCCCN2C)C(C(F)(F)F)C(F)(F)F)OC(C)=O)n1 | 0.0118 µM | > 16.7 µM | 0.00437 µM | 0.0219 µM | 0.346 µM | > 16.7 µM | 0.047 µM | 15.4 µM |  |  | 
3 | Nc1ccn(C2CC3OCC3O2)c(=O)n1 (stereo not given) |  | > 100 µM |  | > 100 µM |  | > 100 µM |  | > 100 µM | > 100 µM |  | 
4 | CC(CC(=O)Nc1ccc(NC(=O)CC(C)N=NC(N)=O)cc1)N=NC(N)=O (stereo not given) |  |  |  |  |  |  |  |  |  | > 100 µM | 
5 | CCCCCC/C(CC(=O)CCC(=O)NCCc1ccccc1)=N\Nc1ccc([N+](=O)[O-])cc1[N+](=O)[O-] |  |  |  |  |  |  |  |  |  | > 100 µM | > 100 µM
6 | O=C(CCc1cc(-c2ccc(F)cc2)n[nH]1)N(Cc1ccccc1)Cc1ccccc1 |  |  |  |  |  |  |  |  |  | > 100 µM | 
7 | COc1cc2c(=O)n(CC3CCCCC3)c3c4cc[nH]c4ncc3c2cc1OC | 0.64 µM | > 50 µM | 4.15 µM | > 50 µM | 3.74 µM | 34.5 µM | 0.719 µM | 4.09 µM |  |  | 
8 | COC1CC(n2cc(F)c(N)nc2=O)OC1CO (stereo not given) |  |  |  |  |  |  |  |  |  | > 100 µM | > 100 µM
9 | CN(C)CCOc1ccc2c(c1)C(=O)/C(=C\c1ncc([N+](=O)[O-])n1C)C2 | 0.216 µM | 2.5 µM | 0.209 µM | 0.643 µM | 1.43 µM | 4.55 µM | 1.87 µM | 5.37 µM |  |  | 
10 | CCCCCCCCc1cc(O)ccc1O | 24.8 µM | 66.8 µM | 19.5 µM | 49.7 µM | 19.3 µM | 56.2 µM | 15.4 µM | 53.5 µM |  |  | 
11 | NC(=O)c1nc(-c2ccc(Cl)c(Cl)c2)nc2ccccc12 |  |  |  |  |  |  |  |  |  | > 100 µM | 
12 | CCCCOP1(=O)CC(C)=C(Cl)C(C)(OC)C1 (stereo not given) |  |  |  |  |  |  |  |  |  | > 100 µM | 
13 | O/N=C1\C(=C\c2ccc3c(c2)OCCO3)CCCC1C(NO)c1ccc2c(c1)OCCO2 (stereo not given) |  |  |  |  |  |  |  |  |  | 62.7 µM | > 100 µM
14 | N#C/C(=C1\OC(N)=C(c2ccc(Cl)cc2)C1=O)c1ccc(Cl)cc1 |  |  |  |  |  |  |  |  |  | 24.3 µM | 
15 | Oc1ccc(O)c(-n2cccn2)c1-n1cccn1 |  |  |  |  |  |  |  |  |  | > 100 µM | 
16 | Cc1cc2nc(-c3ccc(O)c(O)c3)n(Cc3ccc(O)c(O)c3)c2cc1C | 24.4 µM | 80.7 µM | 16 µM | > 100 µM | > 100 µM | > 100 µM | 41.3 µM | > 100 µM |  |  | 
17 | COC(=O)C(/C(=N\O)C(=O)Nc1ccc(Br)cc1)c1nc2ccccc2[nH]c1=O (stereo not given) |  |  |  |  |  |  |  |  |  | 80.5 µM | > 100 µM
18 | CS(=O)(=O)CCNCc1ccoc1-c1ccc2ncnc(Nc3ccc(OCc4ccccc4)cc3)c2c1 | 8.54 µM | > 25 µM | > 25 µM | > 25 µM | > 25 µM | > 25 µM | 2.28 µM | > 25 µM |  |  | 
19 | COc1cc([C@@H]2c3cc4c(cc3[C@@H](NCc3cccc(F)c3)C3COC(=O)[C@@H]32)OCO4)cc(OC)c1O (stereo not given in full) |  |  |  |  |  |  |  |  |  | > 65 µM | 
20 | CCN(CC)CCNc1ccc([N+](=O)[O-])c2nc3ccc(OC)cc3c(N)c12 |  | 1.31 µM |  | 2.98 µM |  | 3.53 µM |  | 2.89 µM | 3.26 µM |  | 

Row | SMILES | GI50 (MCF7 breast) | TGI (MCF7 breast) | GI50 (MDA-MB-435) | TGI (MDA-MB-435) | GI50 (NCI/ADR-RES ovarian) | TGI (NCI/ADR-RES ovarian) | GI50 (HS 578T breast) | TGI (HS 578T breast) | TGI (MDA-N) | TGI (LXFL 529 NSCLC) | TGI (RXF-631 renal)
21 | COc1ccc(/C=C/C(=O)c2ccc(Nc3nc(Nc4ccc(F)cc4)nc(Nc4ccc(F)cc4)n3)cc2)cc1 | 5.59 µM | 34.3 µM | 5.8 µM | 31.6 µM | 5.63 µM | 33 µM | 14.4 µM | 59.6 µM |  |  | 
22 | CC1=CC(=O)N2C(OC[C@@H]2c2ccccc2)O1 (stereo not given in full) |  |  |  |  |  |  |  |  |  | > 100 µM | 
23 | CC(=O)/C(=C/N1CCN(C(=O)c2ccco2)C1=S)C(=O)c1ccccc1 | 1.25 µM | 4.2 µM | 10.7 µM | 43.9 µM |  |  |  |  |  |  | 
24 | CC1/C(=N/O)CC(c2ccccc2)N(N=O)C1c1ccccc1 (stereo not given) |  | > 100 µM |  | > 100 µM |  | > 100 µM |  | > 100 µM | > 100 µM |  | 
25 | CCOC(=O)C(=O)Nc1nc2ccc(C)cc2s1 |  |  |  |  |  |  |  |  |  | > 100 µM | > 100 µM
26 | CCC(C)N1CN(c2ccccc2)C2(CCN(CCCC3(c4ccc(F)cc4)OCCO3)CC2)C1=O (stereo not given) |  | 7.58 µM |  | 45.6 µM |  | 27.6 µM |  | 14.2 µM | 17.9 µM |  | 
27 | CCOc1ccccc1NC(=O)C1=C(C)NC(C)=C(C(=O)Nc2ccccc2OCC)C1c1cccc([N+](=O)[O-])c1 |  |  |  |  |  |  |  |  |  | > 100 µM | 
28 | CC/C(C)=C1\CCC(CN(C)C)C1=O (stereo not given) |  |  |  |  |  |  |  |  |  | 29.9 µM | 34.4 µM
29 | COC(=O)c1cc(C)[nH]c2c(C)cc3nc4ccccc4c3c12 | 8.01 µM | 22.8 µM | 9.01 µM | 22.2 µM | 3.87 µM | 18 µM | 15 µM | > 100 µM |  |  | 
30 | N#CNC1=NCCC(=O)N1CCc1c[nH]c2ccccc12 |  |  |  |  |  |  |  |  |  | > 100 µM | 
31 | Cc1ccc(C)c(NC(=O)C(=O)Nn2c(=S)[nH]c3ccccc3c2=O)c1 |  |  |  |  |  |  |  |  |  | > 100 µM | > 100 µM
32 | C[C@H]1CC[C@@H]2[C@@H](C)[C@H]3[C@H](C[C@H]4[C@@H]5CC=C6C[C@@H](O)CC[C@]6(C)[C@H]5CC[C@]34C)N2C1 |  | > 100 µM |  | > 100 µM |  | > 100 µM |  | 97.9 µM | > 100 µM |  | 
33 | CN(C)C(=S)/N=c1\ss/c(=N\S(=O)(=O)c2ccccc2)n1C |  |  |  |  |  |  |  |  |  | > 100 µM | 
34 | COc1ccc(C2C3=C(COC3=O)N(CCO)c3cc4c(cc32)CCC4)cc1 (stereo not given) | 1.86 µM | > 50 µM | 1.13 µM | 5.09 µM | 3.89 µM | 25.8 µM | 4.11 µM | 42 µM |  |  | 
35 | CC1(C2CCC3(C)C(C2)C3Sc2ccccc2)OCCO1 (stereo not given) |  |  |  |  |  |  |  |  |  | > 100 µM | 
36 | COc1cc(CCc2ccncc2)cc(OC)c1OC |  |  |  |  |  |  |  |  |  | > 100 µM | > 100 µM
37 | C=C(CN1CCN(c2ccc(F)c(Cl)c2)CC1)c1ccc(C(=O)Nc2ccccc2N)cc1 | 5.17 µM | > 100 µM | 3.2 µM | 12.6 µM | 2.01 µM | 5.09 µM | 7.39 µM | > 100 µM |  |  | 
38 | CC(C)OP(=O)(OC(C)C)/C(C#N)=C/c1c[nH]c2ccccc12 |  | > 100 µM |  | > 100 µM |  | > 100 µM |  | > 100 µM | > 100 µM |  | 
39 | C=C1C(=O)OC2(C)CCC1CC1OC1(C)CCC=C(C)CCC2O (stereo not given) |  | > 100 µM |  | > 100 µM |  | > 100 µM |  | > 100 µM | 97.4 µM |  | 
